Patent publication US20220296613A1, “FOOD-INDEPENDENT DOSING OF CV-10155 TO TREAT GABAA DISORDERS” (priority 2021, published 2022)
Like-named read-outs stand apart in the source and are kept apart here.

Assays:
[1] = dog, in vivo, 1 mg/kg
α1β2γ2 GABAA receptors = α1β2γ2 GABAA receptors (Homo sapiens, UniProt P14867+P47870); assay: Synchropatch electrophysiology, potentiation of synaptic GABAA receptors; assay type: cell-based; conditions: for Emax: α1β2γ2 Synaptic receptors, Synchropatch electrophysiology, read-out: Emax - efficacy: % of potentiation
Chain of α1β2γ2 GABAA receptors (P14867 28-456): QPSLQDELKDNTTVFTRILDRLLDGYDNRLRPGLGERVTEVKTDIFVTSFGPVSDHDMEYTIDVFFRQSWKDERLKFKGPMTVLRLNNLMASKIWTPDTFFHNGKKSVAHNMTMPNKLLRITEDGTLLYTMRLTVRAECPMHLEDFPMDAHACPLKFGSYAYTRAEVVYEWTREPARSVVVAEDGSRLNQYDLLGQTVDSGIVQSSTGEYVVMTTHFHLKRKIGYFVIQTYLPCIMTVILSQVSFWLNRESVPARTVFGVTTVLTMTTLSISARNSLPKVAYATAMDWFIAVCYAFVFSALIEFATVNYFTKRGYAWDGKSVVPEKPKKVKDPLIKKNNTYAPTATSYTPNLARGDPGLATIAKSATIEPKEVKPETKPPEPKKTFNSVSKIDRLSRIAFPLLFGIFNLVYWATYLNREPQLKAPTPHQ
Chain of α1β2γ2 GABAA receptors (P47870 25-512 limits assumed): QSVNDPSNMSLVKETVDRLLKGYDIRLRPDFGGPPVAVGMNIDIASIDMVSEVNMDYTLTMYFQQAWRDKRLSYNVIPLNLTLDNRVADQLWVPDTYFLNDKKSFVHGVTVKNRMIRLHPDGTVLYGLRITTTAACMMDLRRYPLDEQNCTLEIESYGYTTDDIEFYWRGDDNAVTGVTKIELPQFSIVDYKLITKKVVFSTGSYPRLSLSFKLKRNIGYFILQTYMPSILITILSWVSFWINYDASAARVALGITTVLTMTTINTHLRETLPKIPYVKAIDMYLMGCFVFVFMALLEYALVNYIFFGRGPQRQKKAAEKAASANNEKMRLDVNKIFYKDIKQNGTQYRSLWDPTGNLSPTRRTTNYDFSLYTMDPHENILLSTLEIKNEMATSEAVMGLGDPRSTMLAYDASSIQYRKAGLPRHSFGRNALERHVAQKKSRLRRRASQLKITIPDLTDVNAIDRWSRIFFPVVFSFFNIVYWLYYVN
Chain of α1β2γ2 GABAA receptors (P18507 40-475 partner): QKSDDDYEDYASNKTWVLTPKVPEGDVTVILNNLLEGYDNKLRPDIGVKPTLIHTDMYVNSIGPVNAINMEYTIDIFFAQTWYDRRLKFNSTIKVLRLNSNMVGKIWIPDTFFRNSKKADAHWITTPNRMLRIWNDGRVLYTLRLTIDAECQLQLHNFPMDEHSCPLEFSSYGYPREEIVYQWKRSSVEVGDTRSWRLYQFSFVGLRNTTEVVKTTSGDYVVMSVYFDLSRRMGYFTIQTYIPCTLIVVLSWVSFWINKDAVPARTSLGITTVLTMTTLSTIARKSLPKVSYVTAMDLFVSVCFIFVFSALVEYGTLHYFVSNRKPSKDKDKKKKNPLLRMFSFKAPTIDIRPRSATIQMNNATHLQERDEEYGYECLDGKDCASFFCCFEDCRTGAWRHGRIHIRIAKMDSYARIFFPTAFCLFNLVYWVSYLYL

α4β3δ GABAA receptors = α4β3δ GABAA receptors (Homo sapiens, UniProt P28472+P48169); assay: Synchropatch electrophysiology, potentiation of extra synaptic GABAA receptors; assay type: cell-based
Chain of α4β3δ GABAA receptors (P48169 36-554): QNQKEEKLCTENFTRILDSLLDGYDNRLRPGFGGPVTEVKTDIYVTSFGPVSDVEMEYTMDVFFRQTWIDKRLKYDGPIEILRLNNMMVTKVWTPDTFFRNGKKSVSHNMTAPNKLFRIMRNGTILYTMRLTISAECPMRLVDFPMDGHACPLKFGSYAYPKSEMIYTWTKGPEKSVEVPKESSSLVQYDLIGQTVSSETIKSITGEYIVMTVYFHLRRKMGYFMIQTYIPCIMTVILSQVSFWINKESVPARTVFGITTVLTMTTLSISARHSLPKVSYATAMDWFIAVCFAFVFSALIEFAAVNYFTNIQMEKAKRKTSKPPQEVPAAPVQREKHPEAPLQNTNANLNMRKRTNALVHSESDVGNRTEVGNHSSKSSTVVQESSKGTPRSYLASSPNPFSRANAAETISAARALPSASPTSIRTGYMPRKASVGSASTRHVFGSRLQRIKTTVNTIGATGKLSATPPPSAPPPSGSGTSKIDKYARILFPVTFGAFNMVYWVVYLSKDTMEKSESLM
Chain of α4β3δ GABAA receptors (P28472 26-473): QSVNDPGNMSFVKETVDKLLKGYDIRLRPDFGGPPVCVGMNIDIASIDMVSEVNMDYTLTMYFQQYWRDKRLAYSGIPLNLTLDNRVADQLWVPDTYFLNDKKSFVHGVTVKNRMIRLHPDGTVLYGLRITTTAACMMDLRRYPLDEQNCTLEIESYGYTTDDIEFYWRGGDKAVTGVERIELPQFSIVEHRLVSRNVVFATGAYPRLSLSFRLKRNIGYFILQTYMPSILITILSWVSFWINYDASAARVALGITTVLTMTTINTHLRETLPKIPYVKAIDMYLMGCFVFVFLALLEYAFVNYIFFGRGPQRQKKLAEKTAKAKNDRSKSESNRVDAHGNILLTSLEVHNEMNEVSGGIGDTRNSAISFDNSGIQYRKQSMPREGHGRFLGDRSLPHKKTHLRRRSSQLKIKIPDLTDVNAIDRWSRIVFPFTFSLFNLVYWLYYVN
Chain of α4β3δ GABAA receptors (O14764 25-452 partner): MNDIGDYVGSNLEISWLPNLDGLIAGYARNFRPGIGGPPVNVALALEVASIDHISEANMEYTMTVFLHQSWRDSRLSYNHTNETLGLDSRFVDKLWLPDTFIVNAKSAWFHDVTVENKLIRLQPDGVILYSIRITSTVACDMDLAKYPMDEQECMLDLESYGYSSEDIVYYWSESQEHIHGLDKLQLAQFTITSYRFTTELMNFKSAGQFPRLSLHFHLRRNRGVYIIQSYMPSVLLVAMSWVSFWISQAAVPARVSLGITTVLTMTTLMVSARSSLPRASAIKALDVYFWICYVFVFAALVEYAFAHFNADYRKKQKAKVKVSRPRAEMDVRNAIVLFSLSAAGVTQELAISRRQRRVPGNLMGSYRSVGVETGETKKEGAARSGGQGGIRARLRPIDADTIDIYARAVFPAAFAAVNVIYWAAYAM

[2] = humans, cited from earlier work
[3] = humans, cited from earlier work; remark: listed apart in the source
[4] = humans, cited from earlier work; remark: listed apart in the source
Forced swim test = Forced swim test - Depression; assay type: in vivo, rodent; conditions: preclinical animal model
[5] = 30 mg, day 7 MAD (MTD), morning dosing

With `C[C@@]1(O)CC[C@@]2(C)[C@@H](CC[C@@H]3[C@@H]2CC[C@]2(C)[C@@H](C(=O)Cn4cc(C#N)cn4)CC[C@@H]32)C1` [CV-10155 (30% HPbCD)] the Cmax ([1]; iv) was 1732 ng/mL, the T½ ([1]; iv) was 13.93 h and the Cmax ([1]; po) was 510 ng/mL. It also gave a Tmax ([1]; po) of 45 min and a T½ ([1]; po) of 13.62 h.
With `C[C@@]1(O)CC[C@@]2(C)[C@@H](CC[C@@H]3[C@@H]2CC[C@]2(C)[C@@H](C(=O)Cn4cc(C#N)cn4)CC[C@@H]32)C1` [CV-10155 (Labrosol)] the Cmax ([1]; po) was 266 ng/mL, the Tmax ([1]; po) was 37.5 min and the T½ ([1]; po) was 18.93 h.
With `CC(=O)[C@H]1CC[C@H]2[C@@H]3CC[C@H]4C[C@](C)(O)CC[C@]4(C)[C@H]3CC[C@]12C` [Ganaxolone, ganaxolone] the EC50 (α1β2γ2 GABAA receptors) was 90 nM, the Emax (α1β2γ2 GABAA receptors) was 745% and the EC50 (α4β3δ GABAA receptors) was 213 nM.
For `C[C@@]1(O)CC[C@H]2[C@H](CC[C@@H]3[C@@H]2CC[C@]2(C)[C@@H](C(=O)Cn4cc(C#N)cn4)CC[C@@H]32)C1` [Sage-217], the “Any adverse event, %” value ([2]; 20 mg (n-188)) is listed as 50.0%, the “Diarrhea, %” value ([2]; 20 mg (n-188)) is listed as 5.9% and the “Dizziness, %” value ([2]; 20 mg (n-188)) is listed as 7.4%. The “Fatigue, %” value ([2]; 20 mg (n-188)) was 1.6%, the “Headache, %” value ([2]; 20 mg (n-188)) was 11.2% and the “Nausea, %” value ([2]; 20 mg (n-188)) was 5.3%. The “Sedation, %” value ([2]; 20 mg (n-188)) was 5.9%, the “Somnolence, %” value ([2]; 20 mg (n-188)) was 5.9% and the “Any adverse event, %” value ([2]; 30 mg (n-192)) was 54.2%. The “Diarrhea, %” value ([2]; 30 mg (n-192)) was 6.3%, the “Dizziness, %” value ([2]; 30 mg (n-192)) was 5.7% and the “Fatigue, %” value ([2]; 30 mg (n-192)) was 6.8%. For the same molecule, the “Headache, %” value ([2]; 30 mg (n-192)) was 6.3%, the “Nausea, %” value ([2]; 30 mg (n-192)) was 3.6% and the “Sedation, %” value ([2]; 30 mg (n-192)) was 4.7%. The “Somnolence, %” value ([2]; 30 mg (n-192)) was 6.8%, the AUC(0-inf) ([3]; 55 mg SAD MTD) was 1633 ng·h/mL and the Cmax ([3]; 55 mg SAD MTD) was 149.9 ng/mL. The T1/2 ([3]; 55 mg SAD MTD) was 17.02 h, the Tmax ([3]; 55 mg SAD MTD) was 1.24 h and the “MTD, single ascending dose (SAD)” value [3] was “SAGE-217 55 mg SAD MTD”. The EC50 (α1β2γ2 GABAA receptors) was 189 nM, the Emax (α1β2γ2 GABAA receptors) was 1000% and the EC50 (α4β3δ GABAA receptors) was 148 nM. The “ratio of Cmax/trough on day 7” value ([4]; 30 mg daily in the evening in a fed state) was 5.88, the AUC0_inf [4, 5] was 833.2 h*ng/m1 and the Cmax [4, 5] was 115.2 ng/mL. The Cmin [4, 5] was 12.46 ng/mL, the “Ratio (Cmax/Cmin)” value [4, 5] was 9.24 and the “T1/2” value [4, 5] was 15.27 h. For the same molecule, the Tmax [4, 5] was 1 h, the “MTD, multiple ascending dose (MAD)” value ([4]; morning dosing) was “SAGE-217 30mg” and the “Forced swim test - Depression: doses tested, * = significantly efficacious dose” value (Forced swim test) was 1 - 3* mg/kg.
